The target in this experiment is T1, Recombinant human mPGES-1 (Homo sapiens, UniProt O14684).
T1 construct: made in house; host or cells: CHO cells
T1 sequence (O14684 1-152): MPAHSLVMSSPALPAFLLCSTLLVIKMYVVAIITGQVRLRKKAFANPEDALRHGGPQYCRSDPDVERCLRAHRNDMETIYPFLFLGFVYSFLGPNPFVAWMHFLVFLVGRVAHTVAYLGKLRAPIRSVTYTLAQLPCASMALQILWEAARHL
Kind of experiment: In-vitro mPGES-1 inhibitor screening (inhibition of PGE2 formation from PGH2, HTRF detection). Type of experiment: biochemical. As to conditions: for inhibition at 1 µM: 1 μM test compound, read-out: Percentage inhibition at 1 μM; for inhibition at 1 µM / inhibition at 10 µM: crude microsomal fraction, 15 μM PGH2; for inhibition at 10 µM: 10 μM test compound, read-out: Percentage inhibition at 10 μM; for IC50: class symbol, concentration response curve. From the text: In-Vitro Protocol for Screening of mPGES-1 Inhibitors:
mPGES-1 (microsomal prostaglandin E synthase-1) is a microsomal enzyme that converts endoperoxide substrate PGH2 (prostaglandin H2) to product PGE2 (prostaglandin E2) by isomerization in the presence of reduced glutathione (GSH). mPGES-1 inhibitors were screened by assessing their ability to inhibit formation of PGE2 from PGH2 in presence of mPGES-1 using an anti-PGE2 antibody based detection method. Recombinant human mPGES-1 was generated in-house by expression in CHO cells (Ouellet M et al. (2002), Protein Expression and Purification 26: 489-495). The assay was set up using crude microsomal fractions at protein concentration of 40-60 μg/mL. Test compounds were prepared in 100% dimethyl sulfoxide (DMSO) to obtain 20 mM stock solution and then diluted using assay buffer comprising 0.1 M Potassium phosphate buffer with 2 mM EDTA. The final concentration of DMSO in reaction was 0.5% (v/v). Negative controls were comprised of all assay reagents except the enzyme. Positive controls were comprised of the enzyme reaction in the absence of any inhibitor. Test compounds were incubated for 10 minutes in assay buffer containing 2.5 mM GSH and mPGES-1 enzyme followed by addition of PGH2 at a concentration of 15 μM for 1 minute. The reaction was stopped by addition of Stannous chloride (11 mg/ml) and PGE2 levels were measured (Masse F et al. (2005), Journal of Biomolecular Screening 10(6) 599-605., Goedken R E et al. (2008), Journal of Biomolecular Screening 13(7): 619-625) by HTRF kit (CisBio)).
Inhibition of mPGES-1 enzyme activity was measured using the percent of reaction occurring in the positive control. Concentration response curves were plotted using percent inhibition of maximum enzyme reaction. The IC50 value was calculated from the concentration response curve by nonlinear regression analysis using GraphPad PRISM software.
In general terms: Time-resolved FRET reads energy transfer from a long-lived donor to a nearby acceptor.

Where only a bound is given, the exact number is not on record here.

Usually inhibition stands for the share of the control response that was lost under treatment. Broadly, the IC50 is the concentration that inhibits the measured activity by half. Take `Cc1ccc2c(Nc3cccc(C(F)(F)F)c3)ncnc2c1NC(=O)c1c(Cl)ccc(CNC(=O)C(C)(C)C)c1F` [Example-42, 6-Chloro-2-fluoro-N-(7-methyl-4-((3-(trifluoromethyl)phenyl)amino)quinazolin-8-yl)-3-(pivalamidomethyl)benzamide]: the inhibition at 1 µM is 96.5%, the inhibition at 10 µM was determined as 99.6% and the IC50 was less than 50 nM.
For `CCOc1ncnc2c(NC(=O)c3c(Cl)ccc(CNC(=O)C(C)(C)C)c3F)cccc12` [Example-43, 6-Chloro-N-(4-ethoxyquinazolin-8-yl)-2-fluoro-3-(pivalamidomethyl)benzamide], in that order: 98.4%, 99.9% and less than 50 nM.
For `CC(C)(C)C(=O)NCc1ccc(Cl)c(C(=O)Nc2cccc3c(Nc4ccc(C(F)(F)F)cc4F)nccc23)c1` [Example-44, 2-Chloro-N-(1-((2-fluoro-4-(trifluoromethyl)phenyl)amino)isoquinolin-5-yl)-5-(pivalamidomethyl)benzamide], in that order: 100%, 100% and less than 50 nM.
For `CC(C)(C)C(=O)NCc1ccc(Cl)c(C(=O)Nc2cccc3c(Nc4ccc(C(F)(F)F)cc4)nccc23)c1` [Example-45, 2-Chloro-5-(pivalamidomethyl)-N-(1-((4-(trifluoromethyl)phenyl)amino)isoquinolin-5-yl)benzamide], in that order: 99.6%, 98.3% and less than 50 nM.
Regarding `CC(C)(C)C(=O)NCc1ccc(Cl)c(C(=O)Nc2cccc3c(Oc4ccc(C(F)(F)F)cc4)nccc23)c1` [Example-46, 2-Chloro-5-(pivalamidomethyl)-N-(1-(4-(trifluoromethyl)phenoxy)isoquinolin-5-yl)benzamide], the inhibition at 1 µM worked out at 89.4%, the inhibition at 10 µM turned out to be 97.7% and the IC50 is less than 50 nM.
For `CC(C)(C)C(=O)NCc1ccc(Cl)c(C(=O)Nc2cccc3c(O[C@H]4CC[C@@H](C(F)(F)F)CC4)nccc23)c1` [Example-47, 2-Chloro-5-(pivalamidomethyl)-N-(1-(((1s,4s)-4-(trifluoromethyl)cyclohexyl)oxy)isoquinolin-5-yl)benzamide], in that order: 85.1%, 97.7% and greater than 100 nM.
For `CC(C)(C)C(=O)NCc1ccc(Cl)c(C(=O)Nc2cccc3c(Oc4ccc(F)c(C(F)(F)F)c4)nccc23)c1` [Example-48, 2-Chloro-N-(1-(4-fluoro-3-(trifluoromethyl)phenoxy)isoquinolin-5-yl)-5-(pivalamidomethyl)benzamide] the same measures were 91.1%, 95.2% and less than 50 nM.
As for `COc1c(CNC(=O)C(C)(C)C)ccc(Cl)c1C(=O)Nc1cccc2c(Oc3cccc(C(F)(F)F)c3)ncnc12` [Example-49, 6-Chloro-2-methoxy-3-(pivalamidomethyl)-N-(4-(3-(trifluoromethyl)phenoxy)quinazolin-8-yl)benzamide], the inhibition at 1 µM came out at 91.9%, the inhibition at 10 µM was 91% and the half-inhibitory concentration (IC50) was less than 50 nM.
For `CC(C)(C)C(=O)NCc1ccc(Cl)c(C(=O)Nc2cccc3c(O[C@H]4CC[C@H](C(F)(F)F)CC4)nccc23)c1F` [Example-50, 6-Chloro-2-fluoro-3-(pivalamidomethyl)-N-(1-(((1r,4r)-4-(trifluoromethyl)cyclohexyl)oxy)isoquinolin-5-yl)benzamide] the same measures were 99.2%, 99.6% and less than 50 nM.
For `CC(C)(C)C(=O)NCc1ccc(Cl)c(C(=O)Nc2cccc3c(Oc4ccc(F)c(C(F)(F)F)c4)ccnc23)c1F` [Example-51, 6-Chloro-2-fluoro-N-(4-(4-fluoro-3-(trifluoromethyl)phenoxy)quinolin-8-yl)-3-(pivalamidomethyl)benzamide] the same measures were 99.3%, 99.7% and less than 50 nM.
For `CC(C)(C)C(=O)NCc1ccc(Cl)c(C(=O)Nc2cccc3c(Oc4ccc(F)c(C(F)(F)F)c4)ncnc23)c1F` [Example-52, 6-Chloro-2-fluoro-N-(4-(4-fluoro-3-(trifluoromethyl)phenoxy)quinazolin-8-yl)-3-(pivalamidomethyl)benzamide], in that order: 94.5%, 95.3% and less than 50 nM.
With `CC(C)(C)C(=O)NCc1ccc(Cl)c(C(=O)Nc2cccc3c(Oc4ccc(C(F)(F)F)cc4)ccnc23)c1F` [Example-53, 6-Chloro-2-fluoro-3-(pivalamidomethyl)-N-(4-(4-(trifluoromethyl)phenoxy)quinolin-8-yl)benzamide], the inhibition at 1 µM was 98.3%, the inhibition at 10 µM was 98.3% and the 50% inhibitory concentration (IC50) is less than 50 nM.
With `Cc1nc(NC2CCC(C)(C)CC2)c2cccc(NC(=O)c3c(Cl)ccc(CNC(=O)C(C)(C)C)c3F)c2n1` [Example-54, 6-Chloro-N-(4-((4,4-dimethylcyclohexyl)amino)-2-methylquinazolin-8-yl)-2-fluoro-3-(pivalamidomethyl)benzamide], the inhibition at 1 µM stood at 98.2%, the inhibition at 10 µM is 97.3% and the IC50 is less than 50 nM.
For `CC(C)(C)C(=O)NCc1ccc(Cl)c(C(=O)Nc2cccc3cccnc23)c1F` [Example-55, 6-Chloro-2-fluoro-3-(pivalamidomethyl)-N-(quinolin-8-yl)benzamide] the same measures were 94.1%, 99.8% and less than 50 nM.
Turning to `Cc1nc(Oc2cccc(C(F)(F)F)c2)c2cccc(NC(=O)c3c(Cl)ccc(CNC(=O)C(C)(C)C)c3F)c2n1` [Example-56, 6-Chloro-2-fluoro-N-(2-methyl-4-(3-(trifluoromethyl)phenoxy)quinazolin-8-yl)-3-(pivalamidomethyl)benzamide], the inhibition at 1 µM was determined as 97.9%, the inhibition at 10 µM came to 99.3% and the concentration for half-maximal inhibition (IC50) was in the range of 50 to 100 nM.
With `Cc1nc(NC(C)C)c2cccc(NC(=O)c3c(Cl)ccc(CNC(=O)C(C)(C)C)c3F)c2n1` [Example-57, 6-Chloro-2-fluoro-N-(4-(isopropylamino)-2-methylquinazolin-8-yl)-3-(pivalamidomethyl)benzamide], the inhibition at 1 µM amounted to 74.1%, the inhibition at 10 µM was 96% and the IC50 is greater than 100 nM.
As for `Cc1nc(N2CCOCC2)c2cccc(NC(=O)c3c(Cl)ccc(CNC(=O)C(C)(C)C)c3F)c2n1` [Example-58, 6-Chloro-2-fluoro-N-(2-methyl-4-morpholinoquinazolin-8-yl)-3-(pivalamidomethyl)benzamide], the inhibition at 1 µM is 51.3% and the inhibition at 10 µM is 93.4%.
On to `CC(C)Oc1ncnc2c(NC(=O)c3c(Cl)ccc(CNC(=O)C(C)(C)C)c3F)cccc12` [Example-59, 6-Chloro-2-fluoro-N-(4-isopropoxyquinazolin-8-yl)-3-(pivalamidomethyl)benzamide], for which the inhibition at 1 µM worked out at 97.5%, the inhibition at 10 µM came to 99.4% and the half-maximal inhibitory concentration (IC50) was less than 50 nM.
For `Cc1nc(NC2CCC(F)(F)CC2)c2cccc(NC(=O)c3c(Cl)ccc(CNC(=O)C(C)(C)C)c3F)c2n1` [Example-60, 6-Chloro-N-(4-((4,4-difluorocyclohexyl)amino)-2-methylquinazolin-8-yl)-2-fluoro-3-(pivalamidomethyl)benzamide], in that order: 86.5%, 91.7% and greater than 100 nM.
As for `CN(C)c1ncnc2c(NC(=O)c3c(Cl)ccc(CNC(=O)C(C)(C)C)c3F)cccc12` [Example-61, 6-Chloro-N-(4-(dimethylamino)quinazolin-8-yl)-2-fluoro-3-(pivalamidomethyl)benzamide], the inhibition at 1 µM is 88.3%, the inhibition at 10 µM came out at 97.2% and the half-inhibitory concentration (IC50) is greater than 100 nM.
For `CC(C)(C)Nc1ncnc2c(NC(=O)c3c(Cl)ccc(CNC(=O)C(C)(C)C)c3F)cccc12` [Example-62, N-(4-(tert-Butylamino)quinazolin-8-yl)-6-chloro-2-fluoro-3-(pivalamidomethyl)benzamide], in that order: 97.3%, 97.8% and less than 50 nM.
Regarding `CCOc1ccnc2c(NC(=O)c3c(Cl)ccc(CNC(=O)C(C)(C)C)c3F)cccc12` [Example-63, 6-Chloro-N-(4-ethoxyquinolin-8-yl)-2-fluoro-3-(pivalamidomethyl)benzamide], the inhibition at 1 µM is 90.8%, the inhibition at 10 µM is 94.7% and the half-maximal inhibitory concentration (IC50) is less than 50 nM.

The values above are taken from patent publication US9006257B2, “Bicyclic compounds as mPGES-1 inhibitors” (Glenmark Pharmaceuticals S.A., priority 2012, dated 2015).
